The text below walks through data of ChEMBL document CHEMBL3882737, “Fused heterocyclic compounds as ion channel modulators” (2013).

In general, inhibition refers to the share of the control response that was lost under treatment.

Data set [1] has as its system Oryctolagus cuniculus. Put plainly: Anti-ischemic activity in anesthetized New Zealand rabbit heart assessed as reduction in ischemia-induced ST segment elevation by measuring MAPD90_ATX levels at 1 uM plasma concentration at 0.1 to 0.4 mg/kg, iv bolus dose dosed 30 mins before ischemia followed by reperfusion. Format: functional.
The target in data set [2] is NaV1.5 (peak sodium current) (Homo sapiens, UniProt Q14524). The data set can be described thus: Inhibition of human NaV1.5 expressed in HEK293 cells assessed as use dependent blocking of cell membrane depolarization-induced peak sodium currents at 1 uM at 0 mV and 3 Hz stimulation at holding potential of -100 mV by whole cell patch clamp Qpatch method. Format: cell-based. Particulars: HEK293 cells that express human NaV1.5.

Data set [3] has as its system Oryctolagus cuniculus. The data set can be described thus: Anti-ischemic activity in anesthetized New Zealand rabbit heart assessed as reduction in ischemia-induced ST segment elevation at 0.1 to 0.4 mg/kg, iv bolus dose dosed 30 mins before ischemia followed by reperfusion. Format: functional, organism-based.
The subject of data set [4] is Oryctolagus cuniculus. Put plainly: Effect on blood pressure in anesthetized New Zealand rabbit ischemia-induced ST segment elevation model at 0.1 to 0.4 mg/kg, iv bolus dose dosed 30 mins before ischemia followed by reperfusion. In kind it is ADME, organism-based. Particulars: in vivo, 0.5 h.
Data set [5] relates to Oryctolagus cuniculus. Put plainly: Effect on heart rate in anesthetized New Zealand rabbit ischemia-induced ST segment elevation model at 0.1 to 0.4 mg/kg, iv bolus dose dosed 30 mins before ischemia followed by reperfusion. In kind it is ADME, organism-based. Particulars: in vivo, 0.5 h.
Data set [6] has as its system Oryctolagus cuniculus. The data set can be described thus: Effect on ECG intervals in anesthetized New Zealand rabbit ischemia-induced ST segment elevation model at 0.1 to 0.4 mg/kg, iv bolus dose dosed 30 mins before ischemia followed by reperfusion. In kind it is ADME, organism-based. The settings on record: in vivo, 0.5 h.
For data set [7], the system named is Oryctolagus cuniculus. The data set can be described thus: Anti-ischemic activity in anesthetized New Zealand rabbit heart assessed as reduction in ischemia-induced myocardial electrical dysfunction at 0.1 to 0.4 mg/kg, iv bolus dose dosed 30 mins before ischemia followed by reperfusion. Format: functional, organism-based.
The target of data set [8] is Sodium channel protein type 5 subunit alpha (Homo sapiens, UniProt Q14524). The data set can be described thus: Inhibition of human NaV1.5 expressed in HEK293 cells assessed as blocking of tefluthrin-induced late sodium currents at 1 uM using -20 mV voltage steps at holding potential of -120 mV by whole cell patch clamp Qpatch method. In kind it is cell-based. Background: In patch-clamp work, channel activity is measured electrically.
Sodium channel protein type 5 subunit alpha, sequence (Q14524 whole entry): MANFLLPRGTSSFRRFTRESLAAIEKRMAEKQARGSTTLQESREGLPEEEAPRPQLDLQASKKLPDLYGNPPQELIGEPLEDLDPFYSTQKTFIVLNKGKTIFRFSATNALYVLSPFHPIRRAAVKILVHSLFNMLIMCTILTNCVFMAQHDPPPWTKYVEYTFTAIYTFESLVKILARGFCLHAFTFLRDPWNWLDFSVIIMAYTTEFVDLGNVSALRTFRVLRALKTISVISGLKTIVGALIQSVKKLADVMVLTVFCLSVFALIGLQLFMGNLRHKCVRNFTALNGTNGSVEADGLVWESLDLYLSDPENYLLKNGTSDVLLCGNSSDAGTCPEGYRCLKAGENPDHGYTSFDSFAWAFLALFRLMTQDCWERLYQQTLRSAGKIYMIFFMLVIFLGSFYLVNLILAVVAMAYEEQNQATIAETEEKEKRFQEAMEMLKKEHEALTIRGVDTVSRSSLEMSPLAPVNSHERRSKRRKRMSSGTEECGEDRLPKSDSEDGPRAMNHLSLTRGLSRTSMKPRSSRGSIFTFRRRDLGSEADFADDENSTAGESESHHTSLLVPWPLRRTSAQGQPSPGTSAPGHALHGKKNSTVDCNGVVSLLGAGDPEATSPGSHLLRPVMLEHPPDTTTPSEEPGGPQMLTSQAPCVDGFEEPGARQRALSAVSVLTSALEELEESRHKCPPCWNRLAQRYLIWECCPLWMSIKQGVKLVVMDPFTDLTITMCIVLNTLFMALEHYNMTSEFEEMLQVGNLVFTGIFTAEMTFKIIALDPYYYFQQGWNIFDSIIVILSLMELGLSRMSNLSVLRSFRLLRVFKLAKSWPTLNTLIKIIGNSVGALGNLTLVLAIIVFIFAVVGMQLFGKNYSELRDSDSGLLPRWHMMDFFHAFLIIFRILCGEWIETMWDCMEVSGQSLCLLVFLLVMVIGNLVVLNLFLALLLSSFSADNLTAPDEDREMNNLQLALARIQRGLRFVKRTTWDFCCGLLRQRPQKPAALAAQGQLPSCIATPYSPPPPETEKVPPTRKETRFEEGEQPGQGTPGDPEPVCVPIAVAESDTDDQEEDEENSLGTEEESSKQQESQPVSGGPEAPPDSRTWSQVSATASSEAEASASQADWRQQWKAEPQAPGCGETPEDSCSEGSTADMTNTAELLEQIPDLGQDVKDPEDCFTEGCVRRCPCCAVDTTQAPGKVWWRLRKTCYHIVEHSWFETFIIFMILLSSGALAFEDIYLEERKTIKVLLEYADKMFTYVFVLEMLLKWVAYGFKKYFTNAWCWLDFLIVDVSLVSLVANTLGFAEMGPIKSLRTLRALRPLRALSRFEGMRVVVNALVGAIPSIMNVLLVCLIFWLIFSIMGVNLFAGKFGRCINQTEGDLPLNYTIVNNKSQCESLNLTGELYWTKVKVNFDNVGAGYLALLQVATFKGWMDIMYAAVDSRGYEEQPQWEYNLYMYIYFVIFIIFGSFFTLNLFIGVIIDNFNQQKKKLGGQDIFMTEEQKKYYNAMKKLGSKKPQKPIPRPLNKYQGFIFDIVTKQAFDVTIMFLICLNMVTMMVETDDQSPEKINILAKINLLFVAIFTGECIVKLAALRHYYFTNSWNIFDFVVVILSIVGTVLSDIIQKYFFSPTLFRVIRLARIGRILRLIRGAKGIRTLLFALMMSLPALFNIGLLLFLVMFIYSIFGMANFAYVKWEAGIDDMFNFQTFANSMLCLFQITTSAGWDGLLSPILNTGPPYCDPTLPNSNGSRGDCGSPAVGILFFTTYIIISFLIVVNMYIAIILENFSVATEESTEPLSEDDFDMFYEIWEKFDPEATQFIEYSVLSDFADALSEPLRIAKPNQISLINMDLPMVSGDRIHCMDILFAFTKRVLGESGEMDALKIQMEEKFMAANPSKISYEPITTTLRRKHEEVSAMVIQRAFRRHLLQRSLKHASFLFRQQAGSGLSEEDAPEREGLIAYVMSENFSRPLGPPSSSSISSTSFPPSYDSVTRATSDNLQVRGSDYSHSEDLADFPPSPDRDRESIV

NaV1.5 (peak sodium current), sequence (Q14524 whole entry): as above

In the case of `Cc1ccnc(CN2CCOc3cnc(-c4ccc(OC(F)(F)F)cc4)cc3C2=O)n1`, the “inhibition (INH)” value in the data set on Oryctolagus cuniculus [1] is -34%.

Consider `O=C(c1ncccn1)N1CCOc2ccc(-c3ccc(OC(F)(F)F)cc3)cc2C1`, for which the “inhibition (INH)” value in the data set on Oryctolagus cuniculus [1] is given as -47%.

`O=C1c2cc(-c3ccc(Cl)cc3)ccc2OCCN1Cc1ncccn1`: the “inhibition (INH)” value in the data set on Oryctolagus cuniculus [1] is reported as -69%.

`O=C1c2cc(-c3ccc(C(F)(F)F)cc3F)ccc2OCCN1Cc1ncccn1`: the inhibition at 1 µM in data set [2] was 10 to 11%.

For the compound `COc1cc(OC)nc(CN2CCOc3ccc(-c4ccc(OC(F)(F)F)cc4)cc3C2=O)n1`, the “inhibition (INH)” value in the data set on Oryctolagus cuniculus [1] is -27%.

Consider `O=C1c2cc(C#Cc3ccc(OC(F)(F)F)cc3)ccc2OCCN1Cc1ncccn1`, for which the “inhibition (INH)” value in the data set on Oryctolagus cuniculus [1] is reported as -25%.

Consider `O=C1c2cc(C#Cc3ccc(C(F)(F)F)cc3)ccc2OCCN1Cc1ncccn1`, for which the “inhibition (INH)” value in the data set with Oryctolagus cuniculus [1] is recorded as -49%.

`CC(C)(C)c1ccc(-c2ccc3c(c2)C(=O)N(Cc2ncccn2)CCO3)cc1`: the “inhibition (INH)” value with Oryctolagus cuniculus [1] was -50%.

Consider `O=C1c2cc(-c3ccc(C(F)(F)F)cc3)ccc2OCCN1Cc1ncccn1`, for which the inhibition entry in the data set on Oryctolagus cuniculus [3] and in the data set on Oryctolagus cuniculus [7] was “Dose-dependent effect” each time. Further, the Activity entry with Oryctolagus cuniculus [4], in the data set on Oryctolagus cuniculus [5] and in the data set with Oryctolagus cuniculus [6] was “Non-Toxic” in each case. Further, in the data set on Oryctolagus cuniculus [1], the “inhibition (INH)” value is -62%.

With `O=C1c2cc(-c3ccc(C(F)(F)F)cc3)ccc2OCCN1Cc1cn2ccccc2n1`, the inhibition at 1 µM in data set [8] was 32 to 33%. For the same compound, the “inhibition (INH)” value in the data set with Oryctolagus cuniculus [1] is listed as -49%.

Regarding `O=C1c2cc(-c3ccc(OC(F)(F)F)cc3)ccc2OCCN1Cc1ncccn1` [ELECLAZINE], the inhibition entry with Oryctolagus cuniculus [3] and in the data set on Oryctolagus cuniculus [7] was “Dose-dependent effect” throughout. The Activity entry in the data set on Oryctolagus cuniculus [4], in the data set on Oryctolagus cuniculus [5] and in the data set on Oryctolagus cuniculus [6] was “Non-Toxic” throughout. The “inhibition (INH)” value with Oryctolagus cuniculus [1] was -56%.

Turning to `O=C1c2cc(-c3ccc(OC(F)(F)F)cc3)ccc2OCCN1Cc1ccc2ccccc2n1`, the “inhibition (INH)” value with Oryctolagus cuniculus [1] is -10%.

Regarding `O=C1c2cc(-c3ccc(OC(F)(F)F)cc3)ccc2OCCN1Cn1cc(Cl)cn1`, the “inhibition (INH)” value in the data set on Oryctolagus cuniculus [1] is -23%.
